PubChem BioAssay AID1053130 (The Scripps Research Institute Molecular Screening Center, 2014)
Active and inactive are the calls of the source. How the calls were made is not given here.

Test system: Jurkat cell viability, ATP luminescence
Test: Jurkat T cell cytotoxicity, late-stage follow-up, cytotoxicity control for T. brucei MetRS inhibitor project, luminescence, round 3 (AID 1053130)

| Structure (SMILES) | IC50 |
| --- | --- |
| CCN(CC)C(=O)C(=O)c1cn(CC(=O)Nc2cc(Oc3ccc(F)cc3)cc(C(F)(F)F)c2)c2ccccc12 | 50.1 µM (inactive) |
| CCN(CC)C(=O)C(=O)c1cn(CCNc2cc(Oc3ccccc3)cc(C(F)(F)F)c2)c2ccccc12 | 34.8 µM (inactive) |
| O=C(Cn1cc(C(=O)C(=O)NCc2ccccc2)c2ccccc21)Nc1cc(Oc2ccccc2)cc(C(F)(F)F)c1 | 63.9 µM (inactive) |
| CCN(CC)C(=O)Cc1cn(CC(=O)Nc2cccc(C(F)(F)F)c2)c2ccccc12 | > 83.3 µM (inactive) |
| CCN(CC)C(=O)C(=O)c1cn(CC(=O)Nc2cc(Oc3ccc(OC)cc3)cc(C(F)(F)F)c2)c2ccccc12 | 11.3 µM (inactive) |
| CCN(CC)C(=O)C(=O)c1cn(CC(=O)Nc2cc(Oc3ccccc3F)cc(C(F)(F)F)c2)c2ccccc12 | > 83.3 µM (inactive) |
| CCN(CC)C(=O)C(=O)c1cn(CC(=O)Nc2cc(Oc3ccccc3)cc(C(F)(F)F)c2)c2ccccc12 | 21 µM (inactive) |
| CCN(CC)C(=O)C(=O)c1cn(CCNc2cccc(C(F)(F)F)c2)c2ccccc12 | 41.1 µM (inactive) |
| CCN(CC)C(=O)C(=O)c1cn(CC(=O)Nc2cc(Oc3ccccc3OC)cc(C(F)(F)F)c2)c2ccccc12 | > 83.3 µM (inactive) |
| Nc1c(Cl)ncnc1Nc1ccc(C(=O)O)cc1 | > 83.3 µM (inactive) |
| O=C(Cc1ccc(Nc2nc3ccc(Br)cc3[nH]2)cc1)NCCc1cccs1 | > 27.8 µM (inactive) |
| CCN(CC)C(=O)C(=O)c1cn(CC(=O)Nc2cccc(C(F)(F)F)c2)c2ccccc12 | 57.2 µM (inactive) |
